The target in assay [1] is T1, Prostaglandin G/H synthase 2 (Homo sapiens) (UniProt P35354).
T1 sequence (whole entry): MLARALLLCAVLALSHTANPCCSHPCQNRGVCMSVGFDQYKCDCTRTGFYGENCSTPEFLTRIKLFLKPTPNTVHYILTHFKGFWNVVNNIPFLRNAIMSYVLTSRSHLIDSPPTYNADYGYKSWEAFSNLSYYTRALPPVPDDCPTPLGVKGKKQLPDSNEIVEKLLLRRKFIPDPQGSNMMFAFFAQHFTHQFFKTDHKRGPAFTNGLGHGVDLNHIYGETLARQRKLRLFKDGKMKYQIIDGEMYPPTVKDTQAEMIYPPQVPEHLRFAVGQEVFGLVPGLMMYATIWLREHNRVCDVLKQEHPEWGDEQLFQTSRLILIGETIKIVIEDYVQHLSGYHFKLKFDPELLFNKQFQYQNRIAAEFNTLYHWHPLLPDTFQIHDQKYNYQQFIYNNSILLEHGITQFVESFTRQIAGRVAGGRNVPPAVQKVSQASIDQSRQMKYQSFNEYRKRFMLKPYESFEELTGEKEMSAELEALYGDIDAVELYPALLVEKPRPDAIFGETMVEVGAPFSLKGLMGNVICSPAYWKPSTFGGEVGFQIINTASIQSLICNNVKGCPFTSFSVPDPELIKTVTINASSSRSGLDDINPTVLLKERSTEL
Put plainly: Inhibition of COX-2 (unknown origin) assessed as inhibition at 100 mg/kg relative to control. It counts as organism-based.

The nature of assay [2]: Antioxidant activity assessed as DPPH radical scavenging activity incubated for 20 mins by spectrophotometric analysis. It counts as functional. Background: Loss of DPPH colour is used to gauge radical scavenging.
Assay [3] in a line: Anti-inflammatory activity assessed as protein denaturation using bovine serum albumin relative to control. It counts as functional.
The test system of assay [4] is Rattus norvegicus. The assay can be described thus: Anti-inflammatory activity against formalin-induced foot paw edema in PO dosed rat at 10 mg/kg assessed as inhibition of edema measured after 5 hr relative to control. It counts as functional. Further details: scale not given: the % may be the effect or the level left.
For assay [5], the system named is Rattus norvegicus. The assay can be described thus: Anti-ulcerative activity in aspirin induced Wistar rat ulcer model assessed as inhibition of ulcer index at 20 mg/kg,po. It counts as functional.
The nature of assay [6]: Selectivity index, ratio of IC50 for ovine COX1 to IC50 for recombinant human COX2.
Assay [7] concerns Rattus norvegicus. Put plainly: Anti-inflammatory activity in Carageenan-induced foot paw edema in Swiss albino rat assessed as reduction in volume of paw edema measured after 6 hr relative to control. Further details: scale not given: the % may be the effect or the level left. It counts as functional.
Assay [8] deals with Rattus norvegicus. The assay can be described thus: Anti-inflammatory activity in Carageenan-induced foot paw edema in Swiss albino rat assessed as reduction in volume of paw edema measured after 4 hr relative to control. It counts as functional. Further details: scale not given: the % may be the effect or the level left.
Assay [9] relates to Rattus norvegicus. The assay can be described thus: Anti-inflammatory activity in Carageenan-induced foot paw edema in Swiss albino rat assessed as reduction in volume of paw edema measured after 1 hr relative to control. It counts as functional. Further details: scale not given: the % may be the effect or the level left.
In assay [10] the test system is Rattus norvegicus. Put plainly: Anti-inflammatory activity in Carageenan-induced foot paw edema in Swiss albino rat assessed as reduction in volume of paw edema measured after 2 hr relative to control. Further details: scale not given: the % may be the effect or the level left. It counts as functional.
The nature of assay [11]: Anti-inflammatory activity assessed using bovine serum albumin/egg albumin proteins assessed as protein denaturation measured at 95 degC for 20 mins by measuring turbidity by UV-Vis spectrophotometer. It counts as functional.
The subject of assay [12] is Erythrocyte. The assay can be described thus: Anti-inflammatory activity in rat red blood cells assessed as stabilization of cell membrane at 200 microg/ml relative to control. It counts as functional. The settings on record: dose 200 µg/ml.
In assay [13] the test system is Erythrocyte. The assay can be described thus: Anti-inflammatory activity in rat red blood cells assessed as stabilization of cell membrane at 500 microg/ml relative to control. The conditions noted are these: dose 500 µg/ml. It counts as functional.
Assay [14] deals with Erythrocyte. Put plainly: Anti-inflammatory activity in human red blood cells assessed as stabilization of cell membrane. It counts as functional, cell-based.
For the next assay, the system named is Mus musculus. Put plainly: Anti-inflammatory activity against Carrageenan-induced paw edema in mouse model assessed as inhibition of edema at 100 mg/kg measured after 3 hrs relative to control. It counts as functional. Details: scale not given: the % may be the effect or the level left.
Assay [15] deals with Rattus norvegicus. Put plainly: Anti-ulcerative activity in Carrageenan-induced Sprague-Dawley rat ulcer model assessed as inhibition of ulcer index at 10 mg/kg,po. It counts as functional.
Assay [16] relates to Rattus norvegicus. Put plainly: Anti-inflammatory activity in Wistar rat assessed as reduced hind paw edema at 25 mg/kg relative to control. It counts as functional. Details: scale not given: the % may be the effect or the level left.
Assay [17] concerns the target T2, Polyunsaturated fatty acid 5-lipoxygenase (Homo sapiens, UniProt P09917).
T2 sequence (P09917 whole entry): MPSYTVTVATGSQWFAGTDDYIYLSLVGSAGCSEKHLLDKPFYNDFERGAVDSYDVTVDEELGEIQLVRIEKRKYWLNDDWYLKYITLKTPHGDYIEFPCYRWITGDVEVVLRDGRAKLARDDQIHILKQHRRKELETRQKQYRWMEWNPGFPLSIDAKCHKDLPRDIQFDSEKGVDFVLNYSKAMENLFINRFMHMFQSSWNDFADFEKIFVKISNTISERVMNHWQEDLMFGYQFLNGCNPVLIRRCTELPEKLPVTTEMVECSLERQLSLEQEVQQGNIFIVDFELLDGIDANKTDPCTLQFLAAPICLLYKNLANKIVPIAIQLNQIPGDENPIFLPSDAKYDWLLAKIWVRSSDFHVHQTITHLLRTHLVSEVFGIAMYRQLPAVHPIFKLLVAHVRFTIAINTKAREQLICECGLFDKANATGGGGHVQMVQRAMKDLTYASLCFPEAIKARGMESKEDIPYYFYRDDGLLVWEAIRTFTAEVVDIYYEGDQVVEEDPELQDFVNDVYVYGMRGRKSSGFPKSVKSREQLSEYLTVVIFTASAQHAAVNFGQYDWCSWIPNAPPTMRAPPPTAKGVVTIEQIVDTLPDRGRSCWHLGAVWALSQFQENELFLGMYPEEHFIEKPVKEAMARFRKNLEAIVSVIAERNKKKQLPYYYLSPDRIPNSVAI
The assay can be described thus: Inhibition of 5-LOX (unknown origin) after 5 mins by colorimetric method.

The test system of assay [18] is Rattus norvegicus. Put plainly: Anti-inflammatory activity against Carrageenan-induced paw edema in PO dosed Wistar albino rat assessed as inhibition of edema measured after 1 hr relative to control. It counts as functional. Details: scale not given: the % may be the effect or the level left. In general terms: The carrageenan paw model is a standard test of acute inflammation.

The test system of assay [19] is Rattus norvegicus. Put plainly: Anti-inflammatory activity against Carrageenan-induced paw edema in PO dosed Wistar albino rat assessed as inhibition of edema measured after 2 hr relative to control. It counts as functional. Details: scale not given: the % may be the effect or the level left.
Assay [20] has as its system Rattus norvegicus. The assay can be described thus: Anti-inflammatory activity against Carrageenan-induced paw edema in PO dosed Wistar albino rat assessed as inhibition of edema measured after 4 hr relative to control. It counts as functional. Details: scale not given: the % may be the effect or the level left.
In a further assay the test system is RAW264.7. The assay can be described thus: Anti-inflammatory activity in mouse RAW264.7 cells assessed as inhibition of LPS-induced NO production in macrophages. It counts as functional, cell-based.

Structures are written as SMILES. ≈ marks a conversion by molar mass, not a printed value.

From ChEMBL document CHEMBL5233249, “Recent advancements in the development of heterocyclic anti-inflammatory agents” (Eur J Med Chem, 2020) come the findings set out here.

Usually inhibition stands for the share of the control response that was lost under treatment. In general, IC50 refers to the concentration needed to halve the response being measured. The term EC50 denotes the concentration giving half of the maximal effect.

For `O=C(O)C(F)(F)C(O)c1cn(-c2ccccc2)nc1-c1ccc(Cl)cc1Cl` (centres undefined), the inhibition in assay [1] was 38.6%. The Activity in [2] came out at 76%.
On to `O=C(O)Cc1ccccc1Nc1c(Cl)cccc1Cl`, for which the Activity in assay [3] was 84.1%.
For the compound `COc1ccc(N2C(=O)/C(=C/c3cn(-c4ccc(S(C)(=O)=O)cc4)nc3-c3cccc(Cl)c3)NC2=S)cc1`, the Activity with Rattus norvegicus [4] turned out to be 60%. For the same compound, in the assay on Rattus norvegicus [5], the UI turned out to be 2.64. For the same compound, the Selectivity Index in assay [6] was 9.32.
As for `CCCC1Nc2cc(C(=O)N/N=C/c3ccc(Cl)cc3Cl)cc(C)c2N1` (centres undefined), the Activity with Rattus norvegicus [7] turned out to be 90.3%; with Rattus norvegicus [8], 81.4%; with Rattus norvegicus [9], 45.5%; in the assay with Rattus norvegicus [10], 59.38%.
Take `Cc1ccc(-c2nn(-c3ccccc3)cc2CCC(=O)OCc2cn(-c3ccc([N+](=O)[O-])cc3)nn2)cc1`: in assay [11], the IC50 was 57.24 µg/mL (≈ 113 µM). Moreover, the Activity in the assay on Erythrocyte [12] came to 74%; in the assay on Erythrocyte [13] it was 97%.
On to `Oc1ccc(Cl)cc1-c1cc(-c2cc3cc4ccccc4nc3s2)[nH]n1`, for which the EC50 in the assay on Erythrocyte [14] amounted to 14 µg/mL (≈ 37.1 µM).
Turning to `CC(C)Cc1ccc(C(C)C(=O)O)cc1` (centres undefined) [IBUPROFEN], the Activity in the assay on Mus musculus is 70.65%. In addition, the UI in the assay with Rattus norvegicus [15] and in the assay with Rattus norvegicus [5] was 20.25 in each case.
Regarding `Cc1ccc(-c2nn(-c3ccccc3)cc2C(O)C(F)(F)C(=O)NN)cc1` (centres undefined), the inhibition in [1] was 33.7%. In addition, the Activity in [2] was 70.9%.
Take `NS(=O)(=O)c1ccc(-n2nc(C(=O)NNC(=O)c3cccc(Cl)c3)cc2-c2ccccc2)cc1`: the Activity in the assay with Rattus norvegicus [16] is recorded as above 60%.
For `N=C1/C(=N\Nc2ccc(Cl)cc2)C(N)=NN1c1ccc(S(N)(=O)=O)cc1`, the IC50 in assay [17] turned out to be 2310 nM.
Turning to `Oc1ccccc1-c1cc(-c2cc3cc4ccccc4nc3s2)[nH]n1`, the EC50 in the assay with Erythrocyte [14] was 11 µg/mL (≈ 32 µM).
For the compound `COc1ccc(-c2nn(-c3ccccc3)cc2CCC(=O)OCc2cn(-c3cccc(Cl)c3)nn2)cc1`, in assay [11], the IC50 came to 60.56 µg/mL (≈ 118 µM). The Activity in the assay on Erythrocyte [12] was found to be 70%; with Erythrocyte [13], 94%.
On to `CC(=O)Nc1ccc(OC(=O)CCCC(=O)/C=C/c2cn(-c3ccccc3)nc2-c2ccccc2)cc1`, for which the Activity in the assay with Rattus norvegicus [18] is 20%; with Rattus norvegicus [19], 15.56%; with Rattus norvegicus [20], 28.57%.
In the case of `C[C@]12CCC(=O)C=C1CC[C@@H]1[C@@H]2[C@@H](O)C[C@@]2(C)[C@H]1CC[C@]2(O)C(=O)CO` [HYDROCORTISONE], the IC50 in the assay on RAW264.7 was determined as 3260 nM.
Consider `O=C(O)c1ccc(CSc2nc3cc(F)c(Oc4ccc(F)cc4)cc3[nH]2)cc1`, for which the Activity with Mus musculus is listed as 66.13%. In assay [17], the IC50 came out at 900 nM.
As for `CC(C)(CO)NC(=O)CCCC(=O)/C=C/c1cn(-c2ccccc2)nc1-c1ccccc1`, the figures for the Activity in the assay on Rattus norvegicus [18], with Rattus norvegicus [19] and in the assay on Rattus norvegicus [20] were 40%, 25.56% and 30.95%, respectively.
